Consider five molecules from patent publication US20090197899A1, “3-(Dihydro-1H-pyrazolo[4,3-d]pyrimidin-5-yl)-4-propoxybenzenesulfonamide Derivatives and Methods of Use” (Concert Pharmaceuticals Inc., priority 2006, published 2009).

The structures appear in SMILES notation.

The data set in a line: Metabolic stability of test compounds using human liver microsomes. The data set is classed as in vitro ADME. The settings on record: for differentiation of t1/2 (longer) as compared to udenafil: human liver microsomes, assay conditions 0.5 mg/mL, 1 µM test compd; for half-life at 1 µM: pooled human liver microsomes, in vitro t1/2, 0.5 mg/mL human liver microsomes, 1 μM test compound, 2 mM NADPH, pH 7.4, 37° C., experiment run an additional three times, read-out: Avg t1/2 (min) ± SD. On the procedure:
Determination of Metabolic Stability of Test Compounds using Human Liver Microsomes. The metabolic stability of compounds of the invention was tested using pooled liver microsomal incubations. Full scan LC-MS analysis was then performed to detect major metabolites. Samples of the test compounds, exposed to pooled human liver microsomes, were analyzed using HPLC-MS (or MS/MS) detection. For determining metabolic stability, multiple reaction monitoring (MRM) was used to measure the disappearance of the test compounds. For metabolite detection, Q1 full scans were used as survey scans to detect the major metabolites.
Experimental Procedures. Human liver microsomes (“HLM”; 20 mg/mL) were obtained from Xenotech, LLC (Lenexa, Kans.). β-nicotinamide adenine dinucleotide phosphate, reduced form (NADPH), magnesium chloride (MgCl2), and dimethyl sulfoxide (DMSO) were purchased from Sigma-Aldrich.
Stock solutions (7.5 mM) of Compounds 100, 103, 108 and 210 and udenafil were prepared in DMSO. The 7.5 mM stock solutions were diluted to 50 μM in acetonitrile (ACN). The 20 mg/mL human liver microsomes were diluted to 0.625 mg/mL in 0.1 M potassium phosphate buffer, pH 7.4, containing 3 mM MgCl2. The diluted microsomes (375 μL) were added to wells of a 96-well deep-well polypropylene plate in triplicate. Ten μL of the 50 μM test compound solution was added to the microsomes and the mixture was pre-warmed for 10 minutes. Reactions were initiated by addition of 125 μL of pre-warmed NADPH solution (8 mM NADPH in 0.1M potassium phosphate buffer, pH 7.4, containing 3 mM MgCl2). […] The reaction mixtures were incubated at 37° C., and 50 μL aliquots were removed at 0, 5, 10, 20, and 30 minutes and added to shallow-well 96-well plates which contained […] of ice-cold ACN with internal standard to stop the reactions. The plates were stored at 4° C. for 20 minutes after which […] of water was added to the wells of the plate before centrifugation to pellet precipitated proteins. Supernatants were transferred to another 96-well plate and analyzed for amounts of parent remaining by LC-MS/MS using an Applied Bio-systems API 4000 mass spectrometer.
The in vitro t1/2s for test compounds were calculated from the slopes of the linear regression of % parent remaining (ln) vs incubation time relationship using the following formula:
in vitro t1/2=0.693/k, where k=−[slope of linear regression of % parent remaining(ln) vs incubation time]. Data analysis was performed using Microsoft Excel Software.

For the molecule `[2H]C([2H])(CC1CCCN1C)NS(=O)(=O)c1ccc(OCCC)c(-c2nc3c(CCC)nn(C([2H])([2H])[2H])c3c(=O)[nH]2)c1` (stereo not shown) [Compound 100], the “differentiation of t1/2 (longer) as compared to udenafil” value is approximately 20% and the half-life at 1 µM is 41.3 ± 1.5 min. In the case of `[2H]C([2H])(CC1CCCN1C)NS(=O)(=O)c1ccc(OCCC)c(-c2nc3c(CCC)nn(C)c3c(=O)[nH]2)c1` (stereo not shown) [Compound 103], the half-life at 1 µM came to 37.2 ± 1.8 min. `[2H]C([2H])([2H])n1nc(CCC)c2nc(-c3cc(S(=O)(=O)NCCC4CCCN4C)ccc3OCCC)[nH]c(=O)c21` (stereo not shown) [Compound 108]: the half-life at 1 µM is 36.2 ± 1.5 min. Consider `[2H]C([2H])(CC1CCCN1C)NS(=O)(=O)c1ccc(OC([2H])([2H])C([2H])([2H])C([2H])([2H])[2H])c(-c2nc3c(CC([2H])([2H])C([2H])([2H])[2H])nn(C([2H])([2H])[2H])c3c(=O)[nH]2)c1` (stereo not shown) [Compound 210, 3-(1-(Methyl-d3)-7-oxo-3-(2,2,3,3,3-d5-propyl)-6,7-dihydro-1H-pyrazolo[4,3-d]pyrimidin-5-yl)-N-(2-(1-methylpyrrolidin-2-yl)-1,1-d2-ethyl)-4-(propoxy-d7)-benzenesulfonamide], for which the “differentiation of t1/2 (longer) as compared to udenafil” value was approximately 20% and the half-life at 1 µM was 42.4 ± 3.74 min. As for `CCCOc1ccc(S(=O)(=O)NCCC2CCCN2C)cc1-c1nc2c(CCC)nn(C)c2c(=O)[nH]1` (stereo not shown) [Udenafil, 3-(1-methyl-7-oxo-3-propyl-6,7-dihydro-1H-pyrazolo[4,3-d]pyrimidin-5-yl)-N-[2-(1-methylpyrrolidin-2-yl)ethyl]-4-propoxybenzenesulfonamide, reference compound], the half-life at 1 µM was 33.6 ± 2.2 min.
